Assays:
AsPC-1 = test: Inhibition of proliferation of KRAS G12D mutant tumor cell line AsPC-1 (CellTiter-Glo); format: cell-based; conditions: Homo sapiens, ASPC1, about 72 h
Description: 1. Experimental objective: The inhibition activity of the example compounds on the proliferation of 5 KRAS G12D mutant cell lines SNU-1, HPAF-II, Panc0403, AsPC-1 and GP2D was determined. 2. Experimental instruments: • 2.1 Instruments: Microplate reader (BioTek Synergy H1); Pipette (Eppendorf & Rainin). • 2.2 Reagents: HPAF-II, PANC0403, AsPC-1 and GP2D were purchased from COBIOER BIOSCIENCES CO., LTD; SNU-1 was purchased from the cell bank of Chinese Academy of Sciences, Cell Titer-Glo was purchased from Promega, with a catalog number of G7573; RPMI 1640 was purchased from Gibco, with a catalog number of 22400089; DMEM was purchased from Gibco, with a catalog number of 11995065; FBS was purchased from Gibco, with a catalog number of 10091148; PBS was purchased from Gibco, with a catalog number of 10010023; trypsin was purchased from Gibco, with a catalog number of 25200056; cell culture plates were purchased from Corning Company, with a catalog number of 3610. 3. Experimental method: When SNU-1, HPAF-II, Panc0403, AsPC-1 or GP2D cells were cultured to the appropriate confluence, and the SNU-1, HPAF-II, Panc0403, AsPC-1 or GP2D cells were collected. The cells were adjusted to the appropriate cell density using complete culture medium, the cell suspension was plated onto a 96-well plate at 90 µL per well, and the plate was placed in the incubator at 37°C and 5% CO2 for adherent culture overnight. Solutions of the compound with different concentrations were formulated using DMSO and culture medium. A vehicle control was set up. The solutions of the compound were added to the 96-well plate at 10 µL per well, and the plate was placed in the incubator at 37°C and 5% CO2 for further culture for about 72 h. Then, CellTiter-Glo solution was added, and the obtained mixture was shaken and mixed evenly, incubated in the dark for 10 min, and read with a BioTek Synergy H1 microplate reader. 4. Experimental data processing method: The luminescence signal value was used to calculate the inhibition rate. Graphpad Prism software was used to fit the concentration and inhibition rate to a nonlinear regression curve, so as to obtain the IC50 value. 5. Experimental results: Table 2: Determination of the inhibition activity of the compounds on the proliferation of KRAS G12D mutant tumor cell line GP2D

[1] = Pharmacokinetic determination in mice (IV and PO, plasma, LCMS/MS); format: in vivo, Balb/c mice; conditions: mouse, in vivo, PO, 30 mg/kg, male Balb/c mice, overnight fasting, plasma
Source text: • 1. Study objective: Balb/c mice were used as test animals to study the pharmacokinetic behavior of the compounds in mice (plasma) after oral administration. • 2. Test scheme • 2.1 Test drugs: The example compounds of the present invention, made in house; • 2.2 Test animals: Balb/c mice, male, purchased from Shanghai Jiesijie Experimental Animal Co., Ltd., animal production license number (SCXK (Shanghai) 2013-0006 N0.311620400001794). • 2.3 Drug formulation: Formulation of a drug for oral administration: 10% Captisol in 50 mM citrate buffer pH 5.0.
(§1) Formulation of 50 mM citric acid: 4.8 g of citric acid was weighed into a 1000 ml glass bottle, ultrapure water was added to 300 ml, and the mixture was magnetically stirred until completely dissolved, additional ultrapure water was then added to 500 ml to formulate 50 mM citric acid.
(§2) Formulation of a solution containing 50 mM citric acid (10% Captisol, PH = 5): 50 g of Captisol powder was weighed and added to a 1000 ml glass bottle, 300 ml of 50 mM citric acid was added, and the mixture was magnetically stirred until completely dissolved, then additional citric acid was added to 500 ml, and the PH was adjusted to 5 using 10 M NaOH.
The example compounds were weighed and added to a 4 mL glass bottle separately, 2.4 mL of the solution was added and the mixture was subjected to ultrasound treatment for 10 min to obtain a colorless clear solution with a concentration of 3 mg/mL.
(§3) Formulation of a drug for intravenous administration: 5%DMSO+10%Solutol HS15+85%PBS.
(§4) The example compounds were weighed, and 5% DMSO was added according to the total administration volume; the mixture was vortexed and sonicated for 2 min to ensure complete dissolution; then, 10% Solutol HS15 was added, and the mixture was vortexed and sonicated for 2 min to achieve complete dissolution; finally, 85% PBS was added, and the mixture was vortexed and sonicated for 5 min; the obtained mixture was filtered through a 0.22 um membrane to obtain a colorless, transparent, and clear solution with a concentration of 0.2 mg/mL.
3 Balb/c mice, male; After overnight fasting, the animals were administered orally (PO) at a dose of 30 mg/kg with an administration volume of 10 mL/kg.
3 Balb/C mice, male; After overnight fasting, the animals were administered intravenously (IV) at a dose of 1 mg/kg with an administration volume of 5 mL/kg.
0.04 mL of blood was collected from the orbit before administration and at 0.25 h, 0.5 h, 1 h, 2 h, 4 h, 6 h, 8 h, and 24 h after administration and placed in an EDTA-2K test tube, and the test tube was centrifuged at 6000 rpm for 6 min at 4°C to separate the plasma, which was stored at -20°C; the animals were fed 4 h after administration.
The final determination results obtained by applying the LCMS/MS method are shown in the table below: Table 6: Pharmacokinetic parameters of the compounds administered intravenously in mice

[2] = tested on: human colorectal cancer cell line (GP2D); test: Anti-tumor efficacy in mouse transplanted tumor model of human colorectal cancer cell line (GP2D); format: in vivo, mice (BALB/c nude); conditions: 100mpk, PO*BID
Source text: 8-10 week old female conventional immunodeficient mice (BALB/c nude) with a body weight of 18 g-22 g were used as experimental animals, and a transplanted tumor model of human colorectal cancer cell line (GP2D) was used to conduct in vivo efficacy experiments to test the anti-tumor results of the example compounds after gavage administration.
(§5) The example compounds of the present invention, made in house.
A certain amount of the example compound was weighed, and an appropriate amount of 10% vehicle (Solutol HS15) was added. The mixture was stirred on a magnetic stirrer for 0.5 h to formulate a homogeneous suspension at the desired concentration.
The human colorectal cancer cell line (GP2D) was derived from COBIOER BIOSCIENCES CO., LTD, cultured on DMEM medium (Gibco, 11995-065) supplemented with 10% fetal calf serum (Gibco, 10091-148) and 1% penicillin/streptomycin (Gibco, 15140-122) and observed under a microscope (Thermo Fisher, 311). The cells were routinely passaged when the cells reached 80%-90% confluence in the culture flask. The passaged cells were cultured in a 37°C, 5% CO2 incubator (Thermo Fisher, 311).
Under aseptic conditions, human colorectal cancer cells (GP2D) in the logarithmic growth phase were harvested using 0.25% trypsin-EDTA (Gibco, 25200-056), washed and resuspended with phosphate buffer. The cell suspension was mixed with Matrigel (Corning, 356234) at a 1 : 1 ratio (v/v) and implanted subcutaneously into the right anterior dorsal region of immunodeficient mice (BALB/c nude). Each mouse was inoculated with 5*10^6 cells in a volume of 100 microliters (µL). After inoculation, when the tumor volume reached 100-200 mm^3, the mice would be evenly randomized into 5 groups based on the tumor size, with 5 mice per group, for in vivo efficacy experiments. The positive control group was the compound MRTX-1133, and the negative control group was the vehicle group.
Mode of administration: The positive control group was intraperitoneally injected, and the example compounds were administered orally.
Twice a week, the long and short diameters of the tumor were measured using a vernier caliper, and the tumor volume (mm^3) was calculated using the formula: V = 0.5*D*d*d, where D and d are the long and short diameters of the tumor, respectively. The anti-tumor efficacy was determined by dividing the average increase in tumor volume of compound-treated animals by the average increase in tumor volume of untreated animals. The calculation formula for tumor inhibition rate was: When there is no tumor regression, TGI(%) = 100-[(Vt-V0) administration group/(Vt-V0) vehicle control group]*100%. When tumor regression occurs, TGI(%) = [1-(V1-V0) administration group/V0 vehicle control group]* 100%. All animals were euthanized after the experiment.

GP2D = test: Inhibition of proliferation of KRAS G12D mutant tumor cell line GP2D (CellTiter-Glo); conditions: Homo sapiens, GP2d, 72 h, read-out: GP2D IC50
[3] = Pharmacokinetic determination in rats (IV and PO, plasma, LCMS/MS); format: in vivo, SD rats; conditions: rat, in vivo, PO, 30 mg/kg, male SD rats, overnight fasting, plasma
Description: SD rats were used as test animals to study the pharmacokinetic behavior of the example compounds in rats (plasma) after oral administration.
as §5
3 SD rats per group, male. Shanghai Jiesijie Experimental Animal Co., Ltd., animal production license number (SCXK (Shanghai) 2013-0006 N0.311620400001794).
Formulation of a drug for oral administration: 10% Captisol in 50 mM citrate buffer pH 5.0.
as §1, §2
The example compounds were weighed and dissolved in the solution and the mixture was shaken well and subjected to ultrasound treatment for 15 min to obtain a colorless clear solution with a concentration of 3 mg/mL.
as §3, §4
3 SD rats per group, male; After overnight fasting, the animals were administered orally (PO) at a dose of 30 mg/kg with an administration volume of 10 mL/kg.
3 SD rats per group, male; After overnight fasting, the animals were administered intravenously (IV) at a dose of 1 mg/kg with an administration volume of 5 mL/kg.
0.2 mL of blood was collected from the jugular vein before administration and at 0.25 h, 0.5 h, 1.0 h, 2.0 h, 4.0 h, 6.0 h, 8.0 h, and 24.0 h after administration and placed in an EDTA-2K test tube, and the test tube was centrifuged at 6000 rpm for 6 min at 4°C to separate the plasma, which was stored at -20°C. the animals were fed 4 h after administration.
The final determination results obtained by applying the LCMS/MS method are shown in the table below: Table 8: Pharmacokinetic parameters of the compounds administered intravenously in rats

## C#Cc1c(F)ccc2cc(O)cc(-c3nc4c5c(nc(OCC6(CN7CCC(=CF)C7)CC6)nc5c3F)N3C[C@H]5CC[C@H](N5)[C@H]3[C@H](C)O4)c12 [Example 131]
AsPC-1
  IC50: 5 nM
[1]; read-out: AUC0-∞
  AUC(0-inf): 559 ng·h/mL
[1]; read-out: Cmax
  Cmax: 151 ng/mL
[1]; read-out: T1/2 (converted)
  half-life: 18.3 h
[1]; read-out: Tmax
  Tmax: 1 h
[2]
  Tumor volume (mm^3, Mean ± SD) Day 0: 167 mm^3
  TGI(%) Day 14: 127.11%
  Tumor volume (mm^3, Mean ± SD) Day 14: 122 mm^3
  ΔT/ΔC(%) Day 14: 15.42%
GP2D
  IC50: 0.17 nM

## C#Cc1c(F)ccc2cc(O)cc(-c3nc4c5c(nc(OCC6(CN7CCC(=CF)CC7C)CC6)nc5c3F)N3CC5CCC(N5)C3C(C)O4)c12 (stereo not shown) [Example 285]
AsPC-1
  IC50: 4.8 nM
[3]; read-out: AUCo-∞
  AUC(0-inf): 598 ng·h/mL
[3]; read-out: Cmax
  Cmax: 73 ng/mL
[3]; read-out: Tmax
  Tmax: 2 h
[2]
  Tumor volume (mm^3, Mean ± SD) Day 0: 167 mm^3
  TGI(%) Day 14: 148.04%
  Tumor volume (mm^3, Mean ± SD) Day 14: 87 mm^3
  ΔT/ΔC(%) Day 14: 10.99%
GP2D
  IC50: 0.16 nM

Source: patent publication EP4635958A1, “PYRIMIDINE-CONTAINING POLYCYCLIC DERIVATIVE INHIBITOR, AND PREPARATION METHOD THEREFOR AND USE THEREOF” (Shanghai Hansoh Biomedical Co., Ltd., priority 2022, dated 2024)
